{
  "source": "patent US20070116800A1",
  "about": "“Chewing Gum with High-Potency Sweetener” (The Coca-Cola Company, priority 2005, published 2007)",
  "key": {"[1]": {"experiment": "Rate of dissolution in H2O at 25° C. of rebaudioside A polymorph and amorphous forms", "assay_type": "physicochemical"}, "[2]": {"assay_type": "physicochemical", "description": "A solution of rebaudioside A (>97% pure by HPLC ) was prepared in double distilled water (12.5 gm in 50 mL, 25% concentration) by stirring the mixture at 40° C. for 5 minutes. An amorphous form of_rebaudioside A was formed by immediately using the clear solution for spray drying with the Lab-Plant spray drier SD-04 instrument (Lab-Plant Ltd., West Yorkshire, U.K.). The solution was fed through the feed pump into the nozzle atomizer which atomized it into a spray of droplets with the help of a constant flow of nitrogen/air. […] This dry powder (11-12 g, H2O 6.74%) was discharged continuously from the drying chamber and was collected in a bottle."}},
  "data": [
    {"substance": "rebaudioside A [Form 1]", "values": [
      {"measurement": "Rate of dissolution in H2O at 25° C. (grade in words)", "setting": "[1]", "value": "Very low"},
      {"measurement": "Rate of dissolution in H2O at 25° C.", "setting": "[1]; 60 minutes", "value": "(<0.2%/60 %/60 minutes"}
    ]},
    {"substance": "rebaudioside A [Form 2]", "values": [
      {"measurement": "Rate of dissolution in H2O at 25° C. (grade in words)", "setting": "[1]", "value": "Intermediate"},
      {"measurement": "Rate of dissolution in H2O at 25° C.", "setting": "[1]; 5 minutes", "value": "(<30%/5 %/5 minutes"}
    ]},
    {"substance": "rebaudioside A [Form 3]", "values": [
      {"measurement": "Rate of dissolution in H2O at 25° C. (grade in words)", "setting": "[1]", "value": "High"},
      {"measurement": "Rate of dissolution in H2O at 25° C.", "setting": "[1]; 5 minutes", "value": "(>30%/5 %/5 minutes"}
    ]},
    {"substance": "rebaudioside A [Form 4]", "values": [
      {"measurement": "Rate of dissolution in H2O at 25° C. (grade in words)", "setting": "[1]", "value": "High"},
      {"measurement": "Rate of dissolution in H2O at 25° C.", "setting": "[1]; 5 minutes", "value": "(>35.0%/5 %/5 minutes"},
      {"measurement": "solubility in water", "setting": "[2]", "value": "> 35.0", "unit": "%"}
    ]}
  ]
}
